Data on 4 compounds can be found in ChEMBL document CHEMBL1157482, “Insight from molecular modeling into different conformation and SAR of natural steroids and unnatural 7-oxa-steroids” (Bioorg Med Chem Lett, 2008).

Data set [1] relates to Rattus norvegicus. The data set can be described thus: Antiprogestin activity against ovariectomized Sprague-Dawley rat assessed as effect on ethinyl estradiol-induced C3 expression at 10 mg/kg, po. It is filed as functional.
Data set [2] concerns Rattus norvegicus. In words: Antiprogestin activity against ovariectomized po dosed Sprague-Dawley rat assessed as effect on ethinyl estradiol-induced C3 expression. It is filed as functional. To be noted: read-out: ID50 (the source's name).
For data set [3], the system named is Rattus norvegicus. In words: AUC (last) in rat at 10 mg/kg, po. It is filed as ADME, organism-based, Plasma. More on the design: time 0 - last, dose 10 mg/kg, route oral. As to conditions: in vivo.
A short description of data set [4]: Mean retention time in rat at 10 mg/kg, po. Format: ADME, organism-based. Details: dose 10 mg/kg, route oral. As to conditions: in vivo.
The nature of data set [5]: Cmax in rat at 10 mg/kg, po. More on the design: dose 10 mg/kg, route oral. To be noted: in vivo. It is filed as ADME, organism-based.
In data set [6] the test system is Rattus norvegicus. In words: AUC (0 to infinity) in rat at 10 mg/kg, po. Format: ADME, organism-based, Plasma. Details: dose 10 mg/kg, route oral, time infinity. As to conditions: in vivo.
The nature of data set [7]: Half life in rat at 10 mg/kg, po. As to conditions: in vivo. Format: ADME, organism-based. Details: dose 10 mg/kg, route oral.
Data set [8] can be described thus: Tmax in rat at 10 mg/kg, po. More on the design: dose 10 mg/kg, route oral. It is filed as ADME, organism-based. To be noted: in vivo.
For data set [9], the system named is Rattus norvegicus. In words: AUC (0 to infinity) in rat at 30 mg/kg, po. As to conditions: in vivo. Details: time infinity, dose 30 mg/kg, route oral. Format: ADME, organism-based, Plasma.
Data set [10] is described as follows: Half life in rat at 30 mg/kg, po. Format: ADME, organism-based. More on the design: dose 30 mg/kg, route oral. As to conditions: in vivo.
Data set [11] in a line: Tmax in rat at 30 mg/kg, po. Format: ADME, organism-based. To be noted: in vivo. More on the design: dose 30 mg/kg, route oral.
Data set [12] in a line: Cmax in rat at 30 mg/kg, po. Format: ADME, organism-based. More on the design: dose 30 mg/kg, route oral. To be noted: in vivo.
A short description of data set [13]: Mean retention time in rat at 30 mg/kg, po. Format: ADME, organism-based. More on the design: dose 30 mg/kg, route oral. As to conditions: in vivo.
The test system of data set [14] is Rattus norvegicus. The data set can be described thus: AUC (last) in rat at 30 mg/kg, po. To be noted: in vivo. Details: time 0 - last, dose 30 mg/kg, route oral. It is filed as ADME, organism-based, Plasma.

Turning to `CC#C[C@]1(O)CC[C@H]2[C@@H]3OCC4=CC(=O)CCC4=C3[C@@H](c3ccc(N(C)C)cc3)C[C@@]21C`, the Efficacy in the data set with Rattus norvegicus [1] is reported as 110%. For the same compound, the ED50 in the data set on Rattus norvegicus [2] amounted to 2.4 mg/kg.
As usually defined, the AUC is concentration integrated over time. Higher therefore signals more exposure. The MRT is a mean duration of stay, worked out from the concentration-time curve. As a reminder, the Cmax is the highest concentration seen after dosing. By half-life is commonly meant the time in which the quantity being followed falls by half. A low value points to rapid decline. In general, Tmax refers to the time at which the peak concentration occurs. `CN(C)c1ccc([C@H]2C[C@@]3(C)[C@@H](CC[C@@]3(O)C#Cc3ccc(F)cc3)[C@@H]3OCC4=CC(=O)CCC4=C32)cc1`: the exposure (AUC) in the data set with Rattus norvegicus [3] is 460 ng·h/mL; in the data set with Rattus norvegicus [6], 505 ng·h/mL. Moreover, the MRT in [4] turned out to be 9.4 h. Further, the peak level in [5] (Cmax) was 48.7 ng/mL. In addition, the half-life in data set [7] is 6.88 h. The Tmax in data set [8] is 3 h.
With `CN(C)c1ccc([C@H]2C[C@@]3(C)[C@@H](CC[C@@]3(O)C#Cc3ccccc3)[C@@H]3OCC4=CC(=O)CCC4=C32)cc1`, the Efficacy in the data set with Rattus norvegicus [1] came to 100%. Also, the ED50 in the data set with Rattus norvegicus [2] came out at 2.5 mg/kg.
In the case of `CC#C[C@]1(O)CC[C@H]2[C@@H]3CCC4=CC(=O)CCC4=C3[C@@H](c3ccc(N(C)C)cc3)C[C@@]21C` [MIFEPRISTONE], the AUC stood at 3570 ng·h/mL with Rattus norvegicus [9] and 446 ng·h/mL in the data set on Rattus norvegicus [14]. Further, in data set [10], the half-life is 5.56 h. Besides, the Tmax in data set [11] turned out to be 12.5 h. Further, in the data set with Rattus norvegicus [1], the Efficacy is listed as 130%. Besides, the concentration in data set [12] peaked (Cmax) at 53.8 ng/mL. Further, in the data set on Rattus norvegicus [2], the ED50 was 2.1 mg/kg. The MRT in data set [13] is 8 h.
